# Assay results published in PMC9698716, “From Serendipity to Rational Identification of the 5,6,7,8-Tetrahydrobenzo[4,5]thieno[2,3-d]pyrimidin-4(3H)-one Core as a New Chemotype of AKT1 Inhibitors for Acute Myeloid Leukemia” (Pharmaceutics, 2022).
# Assays:
# IMS-M2 [1] = experiment: Cell growth, viable cell count by trypan blue exclusion; type: cell-based, human; conditions: IMS-M2, 5 µM, at 48 and 72 h
# [2] = Intrinsic fluorescence assay; type: physicochemical; conditions: excitation/emission 485–535 nm, AKT1 assay buffer, 2 h 37 °C
# Description: Compound T126 was serially diluted in 384-well black plates with Hepes 100 mM, DMSO 4%, Brij 0.003%, Tween 20 0.004%, MgCl2 10 mM, at a pH = 7.5 and incubated for 2 h at 37 °C. After the incubation time the intensity of fluorescence (λexc: 485 nm; λemm: 535 nm) was detected in a Tecan M1000 Pro.
# AKT1 = target: T1, AKT1 (Homo sapiens, UniProt P31749); experiment: AKT1 enzymatic inhibition assay; type: biochemical
# T1 construct: purchased Kinase Logistics, Meyn, Germany #Aps 01-101
# Description: The studied compounds, including the standard inhibitor Staurosporine (Thermo-Fisher , Madrid, Spain, Invitrogen BP2541), were incubated with 3 nM AKT1 (#Aps 01-101; Kinase Logistics, Meyn, Germany) and 1.5 μM Profiler Pro peptide 6 (#760350; Perkin Elmer, Tres Cantos, Madrid, Spain) in the presence of different concentrations of Adenosine 5′triphosphate disodium salt, ATP (#A2383; Sigma Aldrich, Madrid, Spain) in a 384-well Microplate (#781076; Greiner, San Sebastián de los Reyes, Madrid, Spain). The reaction rate was calculated from kinetic measurements carried out measured in a Caliper EzReader LabChip 3000 (Caliper, Hopkinton, MA, USA) reader with samples taken each 10 min for a total time of 60 min. The percentage of substrate conversion rate was plotted versus the ATP concentration. The data was analyzed by non-linear fitting with GraphPad Prism by employing the Michaelis–Menten equation. The buffer assay used in the inhibition hAKT1 assay is: Hepes 100 mM, DMSO 4%, Brij 0.003%, Tween 20 0.004%, MgCl2 10 mM, with a pH = 7.5.
# The Ki values were calculated by employing the GraphPad Prism equations.
# [3] = test system: normal donor CD34+ hematopoietic stem/progenitor cells (HSPC); experiment: Colony forming unit (CFU) assay; type: cell-based, human; conditions: 14 days
# From the text: The human AML cell lines, OCI-AML3 (carrying the NPM1 gene mutation A and the DNMT3A^R882C mutation), IMS-M2 (carrying the NPM1 gene mutation A), OCI-AML2 (with the wild-type NPM1 and DNMT3A^R635W mutation), and SKM-1 and MOLM-13 (with the wild-type NPM1) were previously reported. The cell lines were purchased from the Deutsche Sammelung von Mikroorganismen und Zellkulturen (DSMZ) (Braunschweig, Germany) cell bank and maintained according to the vendors’ instructions. Briefly, cultured cells were split every 3 days and maintained in an exponential growth phase. The cell lines were tested for mycoplasma using the Universal Mycoplasma Detection Kit (ATCC). The OCI-AML3 were grown in α-MEM supplemented with 20% fetal bovine serum, 100 U/mL penicillin, and 100 μg/mL streptomycin (P/S), and all other cell lines were cultured in RPMI and supplemented with a 10–20% fetal bovine serum and 100 U/mL penicillin and 100 μg/mL streptomycin. The cells were kept at 37 °C in a 5% CO2 incubator. Prior to screening, the appropriate cell concentration for all cell lines was determined. […] The metabolic cell activity was measured by using the CellTiter Blue proliferation agent (Roche) as described in the manufacturer’s procedure. […] The fluorescence intensity was measured using the automated Tecan plate reader (Tecan Group Ltd., Männedorf, Switzerland) at an excitation/emission wavelength of 531/572 nm. The fluorescence readouts were reported as relative fluorescence units (RFU) and read on a luminescence plate reader (Infinite 200 Pro, Tecan, CA, USA). […] The results are expressed as mean ± standard error of the mean (SEM). […]
# For the CFU assay, 500 CD34+ human cells were plated in a MethoCult™ enriched medium (see Table S4) on a 6-well plate (untreated cells versus T126 at 1, 2.5, and 5 µM, each condition in triplicate). The plates were then incubated for 14 days at 37 °C (5% CO2), and the images were captured and the colonies counted by STEMvision™. […]
# IMS-M2 [4] = experiment: CellTiter Blue cell viability assay; type: cell-based, human; conditions: Homo sapiens, IMS-M2, 48 h; read-out: cellular IC50
# From the text: (§1) The human AML cell lines, OCI-AML3 (carrying the NPM1 gene mutation A and the DNMT3A^R882C mutation), IMS-M2 (carrying the NPM1 gene mutation A), OCI-AML2 (with the wild-type NPM1 and DNMT3A^R635W mutation), and SKM-1 and MOLM-13 (with the wild-type NPM1) were previously reported. The cell lines were purchased from the Deutsche Sammelung von Mikroorganismen und Zellkulturen (DSMZ) (Braunschweig, Germany) cell bank and maintained according to the vendors’ instructions. Briefly, cultured cells were split every 3 days and maintained in an exponential growth phase. The cell lines were tested for mycoplasma using the Universal Mycoplasma Detection Kit (ATCC). The OCI-AML3 were grown in α-MEM supplemented with 20% fetal bovine serum, 100 U/mL penicillin, and 100 μg/mL streptomycin (P/S), and all other cell lines were cultured in RPMI and supplemented with a 10–20% fetal bovine serum and 100 U/mL penicillin and 100 μg/mL streptomycin. The cells were kept at 37 °C in a 5% CO2 incubator. Prior to screening, the appropriate cell concentration for all cell lines was determined. For the cell lines’ treatments, cells were maintained as follows: OCI-AML3 at 0.25 × 10^6/mL, OCI-AML2 and IMS-M2 at 0.35 × 10^6/mL, and SKM-1 and MOLM-13 at 0.5 × 10^6/mL. The compounds were re-suspended at 10 mM stock in DMSO. Further dilutions were performed in phosphate-buffer-saline (PBS) for pharmacological experiments. The cells were exposed to compounds at different concentrations for the indicated time points and sampled as described below. Briefly, the cells (4 × 10^5/mL) were seeded in 384-well plate and treated for 48 h with various concentrations (0.001 μM to 100 μM) of either one of the compounds, T101, T126, and T159, or NSC348884, as a positive control. Each plate included DMSO at 0.1% as a negative control. The metabolic cell activity was measured by using the CellTiter Blue proliferation agent (Roche) as described in the manufacturer’s procedure. Briefly, CellTiter Blue solution (Resazaurin) was added to each well and the plates were incubated at 37 °C with 5% CO2 for 4 h. During the incubation time, the resazurin is reduced to fluorescent resorufin in metabolically and proliferating living cells. The fluorescence intensity was measured using the automated Tecan plate reader (Tecan Group Ltd., Männedorf, Switzerland) at an excitation/emission wavelength of 531/572 nm. The fluorescence readouts were reported as relative fluorescence units (RFU) and read on a luminescence plate reader (Infinite 200 Pro, Tecan, CA, USA). The dose response curves ([…] (IC50)) were obtained by non-linear regression analysis using the GraphPad Prism 5.0 program. The concentration is shown as a logarithmic function. All the experiments were performed at least in triplicate, with technical repetition. The results are expressed as mean ± standard error of the mean (SEM). For the Colony Forming Unit (CFU) assay, 10 × 10^6 CD34+ human hematopoietic progenitors were received from unique healthy donors, upon signed informed consent, and were cultured in SFEM II (Serum-free medium) and P/S at a density of 1 × 10^6/mL with cytokines that are important for cell division and self-renewal: fms-like tyrosine kinase 3 (FLT3)-ligand, FLT3L (100 ng/mL), Stem Cell Factor, SCF (100 ng/mL) and Trombopoietin, and TPO (50 ng/mL) for 48 h before plating them on a Methocult medium.
# OCI-AML3 = experiment: CellTiter Blue cell viability assay; type: cell-based, human; conditions: Homo sapiens, OCI-AML-3; OCI-AML3, 48 h; read-out: cellular IC50
# From the text: as §1
# OCI-AML2 = experiment: CellTiter Blue cell viability assay; type: cell-based, human; conditions: Homo sapiens, OCI-AML2, 48 h; read-out: cellular IC50
# From the text: as §1
# MOLM-13 = experiment: CellTiter Blue cell viability assay; type: cell-based, human; conditions: Homo sapiens, MOLM-13, 48 h; read-out: cellular IC50
# From the text: as §1
# T1 sequence (P31749 whole entry): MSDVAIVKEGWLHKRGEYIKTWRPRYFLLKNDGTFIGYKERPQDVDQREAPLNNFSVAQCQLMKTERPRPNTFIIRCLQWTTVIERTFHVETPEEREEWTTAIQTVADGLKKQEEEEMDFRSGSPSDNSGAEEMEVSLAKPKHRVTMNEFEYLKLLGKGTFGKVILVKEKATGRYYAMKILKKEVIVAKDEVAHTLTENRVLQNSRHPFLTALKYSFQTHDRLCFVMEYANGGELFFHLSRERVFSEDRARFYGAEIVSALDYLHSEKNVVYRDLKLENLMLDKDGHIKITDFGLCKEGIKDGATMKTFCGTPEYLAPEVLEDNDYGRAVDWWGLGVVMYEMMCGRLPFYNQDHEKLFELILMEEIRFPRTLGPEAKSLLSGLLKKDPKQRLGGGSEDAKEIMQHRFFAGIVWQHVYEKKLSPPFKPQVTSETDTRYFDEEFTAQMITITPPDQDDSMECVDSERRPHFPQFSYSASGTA
structure (smiles),measurement,setting,value
O=c1[nH]c(-c2ccc(O)c(O)c2)nc2sc3c(c12)CCCC3 [T126],cell growth inhibition,IMS-M2 [1],significant cell growth inhibition
same,intrinsic fluorescence,[2],not fluorescent
same,IC50,AKT1,1.99 ± 0.11 µM
same,inhibition at 10 µM,"AKT1; 10 μM compound, read-out: %inh (percentage of inhibition of AKT1 activity)",87%
same,Ki,AKT1; read-out: Ki (AKT1 inhibition constant),0.41 µM
same,colony forming ability of human CD34+ HSPC,[3]; 1 µM,did not inhibit
same,colony forming ability of human CD34+ HSPC,[3]; 2.5 µM,did not inhibit
same,decrease of clonogenic efficiency compared to untreated control,[3]; 5 µM,about 20%
same,IC50,IMS-M2 [4],4.3 µM
same,IC50,OCI-AML3,4.2 µM
same,IC50,OCI-AML2,2.4 µM
same,IC50,MOLM-13,9.2 µM
